These results are taken from ChEMBL document CHEMBL2150973, “Dual inhibitors for aspartic proteases HIV-1 PR and renin: advancements in AIDS-hypertension-diabetes linkage via molecular dynamics, inhibition assays, and binding free energy calculations” (J Med Chem, 2012).

One may read the IC90 as the point of the concentration-response curve where the effect stands at 90%.

The test system of this assay is Human immunodeficiency virus 1. The experiment in a line: microbe, parasite or virus in culture.

`CC(C)CN(C[C@@H](O)[C@H](Cc1ccccc1)NC(=O)O[C@H]1CO[C@H]2OCC[C@H]21)S(=O)(=O)c1ccc(N)cc1`: the 90% effect level (IC90) was put at 4.1 nM.
